According to ChEMBL document CHEMBL1159136, “Dipeptide mimetics can substitute for the receptor activation domain resulting in highly potent analogues of hPTH(136)” (Bioorg Med Chem Lett, 1996):
Peptide text beside a SMILES is read from it. * marks the point of attachment. X2 = CC(C)[C@H](/C=C(\F)[C@H](C)N)C(=O)*; X3 = C/C(=C\[C@H](C(=O)*)C(C)C)[C@H](C)N

Legend:
UMR106-06 [1] = experiment: Compound was evaluated for the accumulation of cyclic AMP in UMR10606 (rat osteosarcoma) cells.; format: functional, cell-based
SAOS-2 [2] = experiment: Compound was evaluated for the intrinsic activity for accumulation of cyclic AMP in SaOS-2 (human osteosarcoma) cells.; format: functional
OK-1 [3] = experiment: Displacement of [125I]-chick PTHrP-(1-36)-NH2 from opossum (OK-1) kidney cells; format: functional
OK-1 [4] = experiment: Compound was evaluated for the accumulation of cyclic AMP in OK-1 cells.; format: functional, cell-based, opossum
OK-1 [5] = experiment: Compound was evaluated for the intrinsic activity for accumulation of cyclic AMP in OK-1 cells.; format: functional, opossum
UMR106-06 [6] = experiment: Compound was evaluated for the intrinsic activity for accumulation of cyclic AMP in UMR10606 (rat osteosarcoma) cells.; format: functional
SAOS-2 [7] = experiment: Compound was evaluated for the accumulation of cyclic AMP in SaOS-2 (human osteosarcoma) cells.; format: functional, cell-based
OK-1 [8] = experiment: Accumulation of cyclic AMP in OK-1 cells.; format: functional, cell-based, opossum

SMILES	EC50 (UMR106-06 [1]; Rattus norvegicus, UMR106-06) [nM]	Intrinsic activity (SAOS-2 [2])	pKD (OK-1 [3])	EC50 (OK-1 [4]) [nM]	Intrinsic activity (OK-1 [5])	Intrinsic activity (UMR106-06 [6])	EC50 (SAOS-2 [7]; Homo sapiens, SAOS-2) [nM]	EC50 (OK-1 [8]; opossum, OK-1) [nM]	EC50 (UMR106-06 [1]; umr106-06) [nM]	EC50 (OK-1 [8]; ok-1) [nM]	EC50 (SAOS-2 [7]; saos-2) [nM]
CC[C@H](C)[C@H](NC(=O)[C@H](CCC(=O)O)NC(=O)[C@H](CO)NC(=O)[C@@H](NC(=O)[C@@H](N)CO)C(C)C)C(=O)N[C@@H](CCC(N)=O)C(=O)N[C@@H](CC(C)C)C(=O)N[C@@H](CCSC)C(=O)N[C@@H](Cc1c[nH]cn1)C(=O)N[C@@H](CC(N)=O)C(=O)N[C@@H](CC(C)C)C(=O)NCC(=O)N[C@@H](CCCCN)C(=O)N[C@@H](Cc1c[nH]cn1)C(=O)N[C@@H](CC(C)C)C(=O)N[C@@H](CC(N)=O)C(=O)N[C@@H](CO)C(=O)N[C@@H](CCSC)C(=O)N[C@@H](CCC(=O)O)C(=O)N[C@@H](CCCN=C(N)N)C(=O)N[C@H](C(=O)N[C@@H](CCC(=O)O)C(=O)N[C@@H](Cc1c[nH]c2ccccc12)C(=O)N[C@@H](CC(C)C)C(=O)N[C@@H](CCCN=C(N)N)C(=O)N[C@@H](CCCCN)C(=O)N[C@@H](CCCCN)C(=O)N[C@@H](CC(C)C)C(=O)N[C@@H](CCC(N)=O)C(=O)N[C@@H](CC(=O)O)C(=O)N[C@H](C(=O)N[C@@H](Cc1c[nH]cn1)C(=O)N[C@@H](CC(N)=O)C(=O)N[C@@H](Cc1ccccc1)C(=O)N[C@H](C(=O)N[C@@H](C)C(N)=O)C(C)C)C(C)C)C(C)C	3.3	0.96	8.6	4.2	1	0.98	2.3				
CC[C@H](C)[C@H](NC(=O)[C@H](CCC(=O)O)NC(=O)[C@H](CO)NC(=O)[C@@H](/C=C(\F)[C@H](C)N)C(C)C)C(=O)N[C@@H](CCC(N)=O)C(=O)N[C@@H](CC(C)C)C(=O)N[C@@H](CCSC)C(=O)N[C@@H](Cc1c[nH]cn1)C(=O)N[C@@H](CC(N)=O)C(=O)N[C@@H](CC(C)C)C(=O)NCC(=O)N[C@@H](CCCCN)C(=O)N[C@@H](Cc1c[nH]cn1)C(=O)N[C@@H](CC(C)C)C(=O)N[C@@H](CC(N)=O)C(=O)N[C@@H](CO)C(=O)N[C@@H](CCSC)C(=O)N[C@@H](CCC(=O)O)C(=O)N[C@@H](CCCN=C(N)N)C(=O)N[C@H](C(=O)N[C@@H](CCC(=O)O)C(=O)N[C@@H](Cc1c[nH]c2ccccc12)C(=O)N[C@@H](CC(C)C)C(=O)N[C@@H](CCCN=C(N)N)C(=O)N[C@@H](CCCCN)C(=O)N[C@@H](CCCCN)C(=O)N[C@@H](CC(C)C)C(=O)N[C@@H](CCC(N)=O)C(=O)N[C@@H](CC(=O)O)C(=O)N[C@H](C(=O)N[C@@H](Cc1c[nH]cn1)C(=O)N[C@@H](CC(N)=O)C(=O)N[C@@H](Cc1ccccc1)C(=O)N[C@H](C(=O)N[C@@H](C)C(N)=O)C(C)C)C(C)C)C(C)C (X2-SEIQLMHNLGKHLNSMERVEWLRKKLQDVHNFVA-NH2)	1.6	0.89	8.9		1	1	1.5	4.4			
CC[C@H](C)[C@H](NC(=O)[C@H](CCC(=O)O)NC(=O)[C@H](CO)NC(=O)[C@@H](/C=C(\C)[C@H](C)N)C(C)C)C(=O)N[C@@H](CCC(N)=O)C(=O)N[C@@H](CC(C)C)C(=O)N[C@@H](CCSC)C(=O)N[C@@H](Cc1c[nH]cn1)C(=O)N[C@@H](CC(N)=O)C(=O)N[C@@H](CC(C)C)C(=O)NCC(=O)N[C@@H](CCCCN)C(=O)N[C@@H](Cc1c[nH]cn1)C(=O)N[C@@H](CC(C)C)C(=O)N[C@@H](CC(N)=O)C(=O)N[C@@H](CO)C(=O)N[C@@H](CCSC)C(=O)N[C@@H](CCC(=O)O)C(=O)N[C@@H](CCCN=C(N)N)C(=O)N[C@H](C(=O)N[C@@H](CCC(=O)O)C(=O)N[C@@H](Cc1c[nH]c2ccccc12)C(=O)N[C@@H](CC(C)C)C(=O)N[C@@H](CCCN=C(N)N)C(=O)N[C@@H](CCCCN)C(=O)N[C@@H](CCCCN)C(=O)N[C@@H](CC(C)C)C(=O)N[C@@H](CCC(N)=O)C(=O)N[C@@H](CC(=O)O)C(=O)N[C@H](C(=O)N[C@@H](Cc1c[nH]cn1)C(=O)N[C@@H](CC(N)=O)C(=O)N[C@@H](Cc1ccccc1)C(=O)N[C@H](C(=O)N[C@@H](C)C(N)=O)C(C)C)C(C)C)C(C)C (X3-SEIQLMHNLGKHLNSMERVEWLRKKLQDVHNFVA-NH2)	1.2	1	9		1	1	1.1	4.4			
CC[C@H](C)[C@H](NC(=O)[C@H](CCC(=O)O)NC(=O)[C@H](CO)NC(=O)[C@@H](NC(=O)[C@H](C)N)C(C)C)C(=O)N[C@@H](CCC(N)=O)C(=O)N[C@@H](CC(C)C)C(=O)N[C@@H](CCSC)C(=O)N[C@@H](Cc1c[nH]cn1)C(=O)N[C@@H](CC(N)=O)C(=O)N[C@@H](CC(C)C)C(=O)NCC(=O)N[C@@H](CCCCN)C(=O)N[C@@H](Cc1c[nH]cn1)C(=O)N[C@@H](CC(C)C)C(=O)N[C@@H](CC(N)=O)C(=O)N[C@@H](CO)C(=O)N[C@@H](CCSC)C(=O)N[C@@H](CCC(=O)O)C(=O)N[C@@H](CCCN=C(N)N)C(=O)N[C@H](C(=O)N[C@@H](CCC(=O)O)C(=O)N[C@@H](Cc1c[nH]c2ccccc12)C(=O)N[C@@H](CC(C)C)C(=O)N[C@@H](CCCN=C(N)N)C(=O)N[C@@H](CCCCN)C(=O)N[C@@H](CCCCN)C(=O)N[C@@H](CC(C)C)C(=O)N[C@@H](CCC(N)=O)C(=O)N[C@@H](CC(=O)O)C(=O)N[C@H](C(=O)N[C@@H](Cc1c[nH]cn1)C(=O)N[C@@H](CC(N)=O)C(=O)N[C@@H](Cc1ccccc1)C(=O)N[C@H](C(=O)N[C@@H](C)C(N)=O)C(C)C)C(C)C)C(C)C (stereo in doubt; form 1)		0.95	8.4		1	1			3.3	5.9	3
CC[C@H](C)[C@H](NC(=O)[C@H](CCC(=O)O)NC(=O)[C@H](CO)NC(=O)[C@@H](NC(=O)[C@H](C)N)C(C)C)C(=O)N[C@@H](CCC(N)=O)C(=O)N[C@@H](CC(C)C)C(=O)N[C@@H](CCSC)C(=O)N[C@@H](Cc1c[nH]cn1)C(=O)N[C@@H](CC(N)=O)C(=O)N[C@@H](CC(C)C)C(=O)NCC(=O)N[C@@H](CCCCN)C(=O)N[C@@H](Cc1c[nH]cn1)C(=O)N[C@@H](CC(C)C)C(=O)N[C@@H](CC(N)=O)C(=O)N[C@@H](CO)C(=O)N[C@@H](CCSC)C(=O)N[C@@H](CCC(=O)O)C(=O)N[C@@H](CCCN=C(N)N)C(=O)N[C@H](C(=O)N[C@@H](CCC(=O)O)C(=O)N[C@@H](Cc1c[nH]c2ccccc12)C(=O)N[C@@H](CC(C)C)C(=O)N[C@@H](CCCN=C(N)N)C(=O)N[C@@H](CCCCN)C(=O)N[C@@H](CCCCN)C(=O)N[C@@H](CC(C)C)C(=O)N[C@@H](CCC(N)=O)C(=O)N[C@@H](CC(=O)O)C(=O)N[C@H](C(=O)N[C@@H](Cc1c[nH]cn1)C(=O)N[C@@H](CC(N)=O)C(=O)N[C@@H](Cc1ccccc1)C(=O)N[C@H](C(=O)N[C@@H](C)C(N)=O)C(C)C)C(C)C)C(C)C (stereo in doubt; form 2)		1	8.1		1	0.95	2.4	7	1		
